According to ChEMBL document CHEMBL1201862, “PubChem BioAssay data set” (2004):
Active and inactive are the calls of the source.

What was measured:
Cytochrome P450 3A4 [1] = biological target: T1, Cytochrome P450 3A4 (Homo sapiens, UniProt P08684);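 further: CYP3A4 tested as one member of a cytochrome P450 panel screen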
Cytochrome P450 1A2 = biological target: T2, Cytochrome P450 1A2 (Homo sapiens, UniProt P05177);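 further: PubChem cytochrome P450 panel assay, CYP1A2 panel member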
T2 sequence (P05177 whole entry): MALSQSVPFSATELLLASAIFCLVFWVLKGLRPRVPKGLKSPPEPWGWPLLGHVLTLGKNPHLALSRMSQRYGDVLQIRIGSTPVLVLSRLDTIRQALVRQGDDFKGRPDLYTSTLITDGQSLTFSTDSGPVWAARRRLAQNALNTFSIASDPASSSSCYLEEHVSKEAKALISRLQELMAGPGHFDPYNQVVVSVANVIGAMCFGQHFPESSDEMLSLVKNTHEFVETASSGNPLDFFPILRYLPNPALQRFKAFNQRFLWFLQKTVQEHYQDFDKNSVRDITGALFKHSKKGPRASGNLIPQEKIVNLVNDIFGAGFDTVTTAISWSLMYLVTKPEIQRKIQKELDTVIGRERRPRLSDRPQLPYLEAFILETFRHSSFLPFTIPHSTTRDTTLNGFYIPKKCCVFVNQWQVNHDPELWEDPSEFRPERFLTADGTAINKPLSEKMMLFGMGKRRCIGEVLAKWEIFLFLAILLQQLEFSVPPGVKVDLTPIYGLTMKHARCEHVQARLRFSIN

Cytochrome P450 2C9 [2] = biological target: T3, Cytochrome P450 2C9 (Homo sapiens, UniProt P11712)
Cytochrome P450 2D6 = Cytochrome P450 2D6 (Homo sapiens, UniProt P10635);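 further: CYP2D6 member of a cytochrome P450 panel assay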
Cytochrome P450 2C19 = Cytochrome P450 2C19 (Homo sapiens, UniProt P33261); test: Cytochrome panel assay with activity outcomes. Panel member name: p450-cyp2c19 Compounds with AC50 equal or less than 10 uM are considered active; assay type: functional
[3] = biological target: T4, DNA repair and recombination protein RAD54-like (Homo sapiens, UniProt Q92698); test: RAD54 Holliday junction migration blockers – biochemical, fluorescence, cherry-picked samples, dose series, confirmation (AID 651657); assay type: functional
T4 sequence (Q92698 whole entry): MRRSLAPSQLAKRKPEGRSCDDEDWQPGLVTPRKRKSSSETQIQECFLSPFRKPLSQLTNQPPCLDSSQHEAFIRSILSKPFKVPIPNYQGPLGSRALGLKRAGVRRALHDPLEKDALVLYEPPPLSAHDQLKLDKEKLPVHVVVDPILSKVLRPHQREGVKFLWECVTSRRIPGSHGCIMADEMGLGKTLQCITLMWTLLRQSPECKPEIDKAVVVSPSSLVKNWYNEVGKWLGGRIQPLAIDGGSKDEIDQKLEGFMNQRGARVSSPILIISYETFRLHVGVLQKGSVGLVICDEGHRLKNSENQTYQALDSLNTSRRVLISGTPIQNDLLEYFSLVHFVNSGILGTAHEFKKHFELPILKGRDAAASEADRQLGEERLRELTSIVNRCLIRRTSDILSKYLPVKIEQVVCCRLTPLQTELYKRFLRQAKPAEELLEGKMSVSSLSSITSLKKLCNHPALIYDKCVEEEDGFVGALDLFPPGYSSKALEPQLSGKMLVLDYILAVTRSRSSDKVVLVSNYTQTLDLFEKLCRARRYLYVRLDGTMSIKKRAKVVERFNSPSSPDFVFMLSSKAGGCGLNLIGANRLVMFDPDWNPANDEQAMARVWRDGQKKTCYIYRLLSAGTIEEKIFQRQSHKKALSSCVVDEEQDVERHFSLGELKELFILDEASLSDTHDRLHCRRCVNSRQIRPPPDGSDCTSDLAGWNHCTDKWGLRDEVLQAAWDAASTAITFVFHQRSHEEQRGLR

Large T antigen = Large T antigen (Simian virus 40, UniProt P03070); assay type: functional, Betapolyomavirus macacae;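 further: Confirmatory-stage PubChem screen for compounds that inhibit SV40 T antigen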
Ephrin type-A receptor 4 = Ephrin type-A receptor 4 (Mus musculus, UniProt Q03137); test: EphA4 ligand-binding antagonists – biochemical, colorimetric, mouse EphA4, primary screen (AID 689); assay type: functional
Prothrombin = Prothrombin (Homo sapiens, UniProt P00734); test: Thrombin 1536 HTS Dose Response Confirmation. [Related pubchem assays: 1046 (Thrombin 1536 HTS; hits were confirmed in this assay)]; assay type: functional
Estrogen receptor beta [4] = biological target: T5, Estrogen receptor beta (Homo sapiens, UniProt Q92731);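 further: recombinant ER-beta bound to coactivator SRC1 peptide in presence of estradiol agonist; inhibitors block coactivator peptide binding and lower the FRET signal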
Estrogen receptor beta [5] = biological target: T5, Estrogen receptor beta; test: blockers of SRC-3 recruitment to ERβ – biochemical, ELISA, streptavidin-HRP readout, orthogonal assay, confirmation (AID 1060)
Cytochrome P450 2C9 [6] = biological target: T3, Cytochrome P450 2C9; remark: listed apart in the source
[7] = biological target: FAD-linked sulfhydryl oxidase ALR (Homo sapiens, UniProt P55789); test: ALR-catalysed DTT oxidation blockers – biochemical, H2O2 detection, luminescence, cherry-pick, dose response (AID 493248)
[8] = biological target: Eukaryotic translation initiation factor 4E (Mus musculus, UniProt P63073); test: blockers of eIF4G binding by eIF4E – biochemical, TR-FRET, dose response (AID 855); assay type: functional;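 further: potency for disrupting eIF4E binding to eIF4GI seen as loss of FRET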
[9] = Luminescence Cell-Based Dose Response HTS to Identify Inhibitors of 5'UTR Stem-Loop Driven Prion Protein mRNA Translation in H4 Neuroglioblastoma Cells. [Related pubchem assays: 1827 (Project Summary), 1813 (Primary HTS)]; assay type: functional
[10] = luciferase reporter signal suppression in cells – H4 neuroglioma cells, luminescence, dose response (AID 1990); assay type: functional, cell-based
[11] = alpha-synuclein stem-loop luciferase translation blockers – H4 neuroglioma cells, luminescence, confirmation (AID 1988); assay type: functional, cell-based
[12] = biological target: T6, Histone-lysine N-methyltransferase NSD2 (Homo sapiens, UniProt O96028); assay type: biochemical
T6 sequence (O96028 whole entry): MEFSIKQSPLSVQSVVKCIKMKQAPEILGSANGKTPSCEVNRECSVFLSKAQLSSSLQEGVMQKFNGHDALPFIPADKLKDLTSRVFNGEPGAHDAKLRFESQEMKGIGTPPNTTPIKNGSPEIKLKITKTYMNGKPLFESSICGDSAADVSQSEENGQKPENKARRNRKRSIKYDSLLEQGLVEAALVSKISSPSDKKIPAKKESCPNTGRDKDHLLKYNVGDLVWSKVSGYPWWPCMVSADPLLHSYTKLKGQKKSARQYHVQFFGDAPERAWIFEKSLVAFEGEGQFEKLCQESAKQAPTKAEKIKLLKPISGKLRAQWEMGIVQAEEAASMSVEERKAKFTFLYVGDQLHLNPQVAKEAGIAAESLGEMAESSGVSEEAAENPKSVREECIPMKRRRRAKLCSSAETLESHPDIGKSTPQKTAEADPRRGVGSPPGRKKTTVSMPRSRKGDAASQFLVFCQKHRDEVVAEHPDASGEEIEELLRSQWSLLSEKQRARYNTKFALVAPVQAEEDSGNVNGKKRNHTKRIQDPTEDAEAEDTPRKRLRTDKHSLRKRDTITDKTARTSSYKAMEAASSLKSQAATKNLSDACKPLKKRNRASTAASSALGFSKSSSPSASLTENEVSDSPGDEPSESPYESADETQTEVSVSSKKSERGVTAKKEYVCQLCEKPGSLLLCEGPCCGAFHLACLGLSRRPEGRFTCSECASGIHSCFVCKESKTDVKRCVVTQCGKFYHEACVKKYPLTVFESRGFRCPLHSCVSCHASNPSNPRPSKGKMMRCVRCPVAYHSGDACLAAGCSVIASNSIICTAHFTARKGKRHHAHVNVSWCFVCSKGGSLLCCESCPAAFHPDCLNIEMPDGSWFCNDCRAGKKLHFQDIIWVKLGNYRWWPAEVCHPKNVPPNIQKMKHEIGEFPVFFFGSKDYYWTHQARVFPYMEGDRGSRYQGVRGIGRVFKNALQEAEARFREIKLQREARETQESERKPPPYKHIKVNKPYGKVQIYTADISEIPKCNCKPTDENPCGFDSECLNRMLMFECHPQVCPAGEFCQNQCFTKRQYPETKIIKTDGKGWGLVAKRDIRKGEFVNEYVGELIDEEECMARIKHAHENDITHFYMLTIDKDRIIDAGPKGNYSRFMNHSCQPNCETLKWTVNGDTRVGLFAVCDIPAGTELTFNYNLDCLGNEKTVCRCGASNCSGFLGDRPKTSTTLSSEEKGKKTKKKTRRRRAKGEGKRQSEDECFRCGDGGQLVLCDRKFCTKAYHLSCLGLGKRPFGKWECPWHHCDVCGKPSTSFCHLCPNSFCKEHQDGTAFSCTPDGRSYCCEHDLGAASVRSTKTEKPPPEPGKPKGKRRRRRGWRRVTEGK

Cytochrome P450 3A4 [13] = biological target: T1, Cytochrome P450 3A4; remark: listed apart in the source
[14] = off-target signal loss in HeLa-CEM21 co-culture – HeLa F-luc CTL cells, cherry-picked, counter-screen for HIV-1 Env fusion inhibitor project, dose response (AID 652040); assay type: functional, cell-based;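 further: potency for signal decrease marking cytotoxic or nonspecific inhibition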
[15] = HIV-1 AD8 envelope cell-cell fusion blockers – cherry-pick, dose response (AID 652062); assay type: functional, cell-based;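 further: luciferase signal from cell-cell fusion driven by HIV-1 clade B AD8 Env; potency is for inhibitors of fusion seen as a drop in luminescence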
[16] = blockers of HIV-1 ZM109 envelope-driven cell-cell fusion – HeLa effector, CEM target cells, luciferase, cherry-pick, dose response (AID 652058); assay type: functional, cell-based;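 further: luciferase signal from HIV-1 Env mediated cell-cell fusion of effector and target cells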
[17] = blockers of HIV-1 envelope-mediated cell-cell fusion – cherry-pick, dose response (AID 652057); assay type: functional, cell-based
[18] = Trypanosoma cruzi growth suppression in host cells – NIH3T3 host cells, beta-gal luminescence, confirmation (AID 2044); assay type: functional, cell-based;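 further: intracellular parasites grown in NIH/3T3 mouse fibroblasts as host cells; luminescent beta-galactosidase reporter signal from transgenic T. cruzi replicating inside host cells; inhibitors lower the luminescence signal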
[19] = NIH3T3 cell viability loss – ATP luminescence, mouse fibroblasts, counter-screen, dose response (AID 2010); assay type: functional, cell-based; conditions: NIH3T3;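 further: cells exposed to compound for about 90 hours before reading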
HEK293 = test: cells; conditions: Homo sapiens;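 further: cells exposed to compound for 14 hours overnight before viability readout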
Tumor necrosis factor = Tumor necrosis factor (Homo sapiens, UniProt P01375); test: analog potency on TNFa NF-kB signaling – cell-based, revised, SAR follow-up (AID 2337); assay type: functional
[20] = biological target: Glyceraldehyde-3-phosphate dehydrogenase (Homo sapiens, UniProt P04406)
Sequence of Glyceraldehyde-3-phosphate dehydrogenase (P04406 whole entry): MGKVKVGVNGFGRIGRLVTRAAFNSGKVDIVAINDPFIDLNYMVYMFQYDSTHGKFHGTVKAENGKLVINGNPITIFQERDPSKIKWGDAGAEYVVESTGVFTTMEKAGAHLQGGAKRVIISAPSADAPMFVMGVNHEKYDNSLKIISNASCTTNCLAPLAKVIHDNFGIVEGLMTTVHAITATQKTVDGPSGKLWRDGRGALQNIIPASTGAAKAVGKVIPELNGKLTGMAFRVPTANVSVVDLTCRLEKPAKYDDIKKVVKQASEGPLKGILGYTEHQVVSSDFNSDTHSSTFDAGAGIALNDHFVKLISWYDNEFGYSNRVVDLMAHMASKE

Sequence of Cytochrome P450 2C19 (P33261 whole entry): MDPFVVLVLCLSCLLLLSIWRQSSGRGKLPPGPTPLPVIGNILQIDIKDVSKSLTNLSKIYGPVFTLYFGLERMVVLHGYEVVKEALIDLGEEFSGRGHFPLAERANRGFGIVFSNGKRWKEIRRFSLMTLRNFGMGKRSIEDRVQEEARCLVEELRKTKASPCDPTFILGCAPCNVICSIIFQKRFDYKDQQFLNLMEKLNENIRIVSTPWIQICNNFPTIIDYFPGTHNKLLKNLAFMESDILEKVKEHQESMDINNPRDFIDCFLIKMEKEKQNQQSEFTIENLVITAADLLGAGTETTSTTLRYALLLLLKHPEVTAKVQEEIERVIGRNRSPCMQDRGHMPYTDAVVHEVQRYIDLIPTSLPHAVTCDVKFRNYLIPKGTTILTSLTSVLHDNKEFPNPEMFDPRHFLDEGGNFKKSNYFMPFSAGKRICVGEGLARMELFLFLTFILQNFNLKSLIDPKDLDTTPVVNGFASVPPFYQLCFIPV
T1 sequence (P08684 whole entry): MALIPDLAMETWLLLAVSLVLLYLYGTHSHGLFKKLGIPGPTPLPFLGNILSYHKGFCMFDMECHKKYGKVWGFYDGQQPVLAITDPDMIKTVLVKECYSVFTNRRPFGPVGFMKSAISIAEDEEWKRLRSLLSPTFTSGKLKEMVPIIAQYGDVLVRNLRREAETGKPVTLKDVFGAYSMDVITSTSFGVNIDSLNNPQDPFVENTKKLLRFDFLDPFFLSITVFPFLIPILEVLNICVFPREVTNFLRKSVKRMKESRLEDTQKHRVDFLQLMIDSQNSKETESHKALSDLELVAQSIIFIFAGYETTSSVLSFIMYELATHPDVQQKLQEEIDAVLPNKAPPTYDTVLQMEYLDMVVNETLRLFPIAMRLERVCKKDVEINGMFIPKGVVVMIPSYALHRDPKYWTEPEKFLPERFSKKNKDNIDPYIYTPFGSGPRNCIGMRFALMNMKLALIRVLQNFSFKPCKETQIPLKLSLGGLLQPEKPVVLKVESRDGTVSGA
Sequence of Cytochrome P450 2D6 (P10635 whole entry): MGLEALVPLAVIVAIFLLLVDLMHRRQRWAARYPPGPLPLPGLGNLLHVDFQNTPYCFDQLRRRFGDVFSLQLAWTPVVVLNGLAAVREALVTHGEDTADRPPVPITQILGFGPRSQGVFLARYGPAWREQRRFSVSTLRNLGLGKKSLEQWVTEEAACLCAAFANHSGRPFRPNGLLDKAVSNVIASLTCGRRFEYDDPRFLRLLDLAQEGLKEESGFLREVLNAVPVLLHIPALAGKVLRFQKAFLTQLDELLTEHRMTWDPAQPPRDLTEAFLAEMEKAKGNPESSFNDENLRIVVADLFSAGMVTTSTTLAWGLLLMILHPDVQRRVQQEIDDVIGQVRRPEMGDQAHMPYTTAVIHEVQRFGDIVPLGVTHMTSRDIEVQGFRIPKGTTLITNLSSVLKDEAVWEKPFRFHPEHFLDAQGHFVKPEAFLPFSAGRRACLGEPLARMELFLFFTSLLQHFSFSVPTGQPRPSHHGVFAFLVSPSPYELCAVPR
T3 sequence (P11712 whole entry): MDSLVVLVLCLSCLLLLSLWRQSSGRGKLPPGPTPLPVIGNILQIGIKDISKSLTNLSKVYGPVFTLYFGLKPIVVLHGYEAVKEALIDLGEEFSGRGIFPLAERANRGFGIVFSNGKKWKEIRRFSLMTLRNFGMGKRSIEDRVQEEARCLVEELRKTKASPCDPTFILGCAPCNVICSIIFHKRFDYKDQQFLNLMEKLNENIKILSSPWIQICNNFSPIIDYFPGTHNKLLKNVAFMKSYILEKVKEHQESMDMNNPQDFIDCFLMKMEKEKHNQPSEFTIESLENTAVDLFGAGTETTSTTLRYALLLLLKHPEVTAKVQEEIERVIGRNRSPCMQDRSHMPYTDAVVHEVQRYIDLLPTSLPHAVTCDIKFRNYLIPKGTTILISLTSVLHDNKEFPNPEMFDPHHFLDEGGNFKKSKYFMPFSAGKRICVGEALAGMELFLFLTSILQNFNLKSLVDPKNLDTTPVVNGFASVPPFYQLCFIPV
Sequence of Ephrin type-A receptor 4 (Q03137 whole entry): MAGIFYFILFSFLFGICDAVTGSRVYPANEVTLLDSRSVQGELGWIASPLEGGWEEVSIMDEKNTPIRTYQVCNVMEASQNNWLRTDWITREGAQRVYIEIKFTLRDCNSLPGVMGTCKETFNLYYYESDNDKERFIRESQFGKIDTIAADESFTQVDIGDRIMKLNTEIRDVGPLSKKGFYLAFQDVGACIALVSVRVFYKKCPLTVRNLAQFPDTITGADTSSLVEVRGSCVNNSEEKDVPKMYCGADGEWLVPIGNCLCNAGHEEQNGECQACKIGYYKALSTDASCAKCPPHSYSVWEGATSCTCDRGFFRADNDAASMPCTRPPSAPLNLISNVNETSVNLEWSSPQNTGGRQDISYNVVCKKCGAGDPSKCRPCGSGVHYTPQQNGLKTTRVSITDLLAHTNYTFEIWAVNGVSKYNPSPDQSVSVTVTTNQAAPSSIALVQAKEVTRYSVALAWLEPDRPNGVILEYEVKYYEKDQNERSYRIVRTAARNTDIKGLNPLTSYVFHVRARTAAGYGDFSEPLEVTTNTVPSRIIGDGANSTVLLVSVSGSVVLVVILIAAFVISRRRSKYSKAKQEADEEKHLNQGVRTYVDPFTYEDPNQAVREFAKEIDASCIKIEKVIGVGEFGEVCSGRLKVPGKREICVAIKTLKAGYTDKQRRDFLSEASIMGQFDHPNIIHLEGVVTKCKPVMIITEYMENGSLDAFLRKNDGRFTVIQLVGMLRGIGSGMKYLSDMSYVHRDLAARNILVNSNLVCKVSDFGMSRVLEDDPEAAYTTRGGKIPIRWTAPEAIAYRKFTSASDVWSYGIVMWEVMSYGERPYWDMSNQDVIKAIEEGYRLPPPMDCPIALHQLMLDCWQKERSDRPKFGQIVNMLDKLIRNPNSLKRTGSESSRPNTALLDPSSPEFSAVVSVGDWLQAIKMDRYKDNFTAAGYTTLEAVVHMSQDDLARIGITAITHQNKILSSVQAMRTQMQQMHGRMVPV
Sequence of Eukaryotic translation initiation factor 4E (P63073 whole entry): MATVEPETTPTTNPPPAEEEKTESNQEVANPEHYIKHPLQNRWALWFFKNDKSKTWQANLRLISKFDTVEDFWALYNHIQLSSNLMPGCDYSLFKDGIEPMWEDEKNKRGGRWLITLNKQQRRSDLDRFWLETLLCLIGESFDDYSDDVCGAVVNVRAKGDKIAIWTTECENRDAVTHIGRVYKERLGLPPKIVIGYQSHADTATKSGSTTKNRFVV
T5 sequence (Q92731 whole entry): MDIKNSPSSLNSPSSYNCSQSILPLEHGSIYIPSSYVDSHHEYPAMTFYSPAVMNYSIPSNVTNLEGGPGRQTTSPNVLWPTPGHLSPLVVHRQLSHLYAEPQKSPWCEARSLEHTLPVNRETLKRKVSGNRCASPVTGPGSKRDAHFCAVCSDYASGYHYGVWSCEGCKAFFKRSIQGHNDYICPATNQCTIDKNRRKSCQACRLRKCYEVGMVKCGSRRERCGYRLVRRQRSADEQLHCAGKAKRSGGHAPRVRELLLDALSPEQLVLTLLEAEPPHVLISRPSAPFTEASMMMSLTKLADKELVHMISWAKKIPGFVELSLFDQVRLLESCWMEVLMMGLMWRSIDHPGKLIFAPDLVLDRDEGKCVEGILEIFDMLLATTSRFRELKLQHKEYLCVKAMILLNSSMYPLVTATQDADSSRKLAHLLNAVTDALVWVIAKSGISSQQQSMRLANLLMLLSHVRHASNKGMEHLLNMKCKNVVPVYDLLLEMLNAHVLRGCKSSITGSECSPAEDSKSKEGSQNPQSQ
Sequence of Tumor necrosis factor (P01375 whole entry): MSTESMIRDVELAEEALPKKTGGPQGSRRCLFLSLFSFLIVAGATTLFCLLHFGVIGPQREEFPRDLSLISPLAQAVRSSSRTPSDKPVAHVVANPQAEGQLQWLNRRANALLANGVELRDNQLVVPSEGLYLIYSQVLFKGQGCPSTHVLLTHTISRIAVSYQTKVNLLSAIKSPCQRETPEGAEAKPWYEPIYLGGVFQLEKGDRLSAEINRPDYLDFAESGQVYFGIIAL
Sequence of FAD-linked sulfhydryl oxidase ALR (P55789 whole entry): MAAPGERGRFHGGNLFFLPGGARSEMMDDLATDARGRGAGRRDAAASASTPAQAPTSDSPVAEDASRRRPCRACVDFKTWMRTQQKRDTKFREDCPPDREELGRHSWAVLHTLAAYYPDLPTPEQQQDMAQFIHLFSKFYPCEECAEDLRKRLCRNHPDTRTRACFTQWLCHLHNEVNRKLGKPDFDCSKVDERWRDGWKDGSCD

Cc1cc2c(cc1C)-c1nnc(-c3ccc4ccccc4n3)n1C(C)(C)C2
AC50 (Cytochrome P450 3A4 [1]): inconclusive | AC50 (Cytochrome P450 1A2): 5.01 µM (inconclusive) | AC50 (Cytochrome P450 2C9 [2]): inconclusive

Nc1nc(Cl)cc(NCCO)n1
AC50 (Cytochrome P450 2D6): inconclusive | AC50 (Cytochrome P450 2C19): inconclusive

Cc1ccc2nc3c(cc(C(=O)NCCN4CCOCC4)c(=N)n3CCCN3CCOCC3)c(=O)n2c1
AC50 [3]: 29.5 µM (active)

CC(=O)N(c1ccc2oc(=O)sc2c1)S(=O)(=O)c1ccccc1
IC50 (Large T antigen): 30.3 µM (active) | IC50 (Ephrin type-A receptor 4): > 100 µM (not active)

CN(C)CCNc1nc2c(c(=O)n(C)c(=O)n2C)n1C
AC50 (Cytochrome P450 2D6): inconclusive

CCSc1nnc(NC(=O)c2ccco2)s1
IC50 (Prothrombin): > 50 µM (not active)

COc1cccc2cc3c(=O)n(-c4ccccc4)nc-3oc12
IC50 (Estrogen receptor beta [4]): 15.7 µM (active) | IC50 (Estrogen receptor beta [5]): > 50 µM (not active)

Cn1nccc1-c1cc(Cl)cc(Cl)c1O
IC50 (Prothrombin): > 50 µM (not active)

COc1ccc(-c2nn3cnnc3s2)cc1OC
AC50 (Cytochrome P450 2C9 [6]): 1.41 µM (inconclusive) | IC50 (Prothrombin): > 50 µM (not active)

CCN(CCCNC(=O)CN(C)S(=O)(=O)c1cccc2nsnc12)c1cccc(C)c1
AC50 [7]: 3.31 µM (active) | IC50 (Ephrin type-A receptor 4): > 100 µM (not active)

COc1ccc(-c2c(C)nn3c(N)c(C#N)cnc23)cc1OC
IC50 [8]: 50 µM (inactive) | EC50 [9]: > 120 µM (not active) | EC50 [10]: 50.1 µM (active) | EC50 [11]: > 120 µM (not active)

CCc1nnc(NC(=O)Cc2ccc(OCc3c(C)noc3C)cc2)s1
IC50 [8]: > 64 µM (inactive)

CCN(CC)CCCN(Cc1cc2ccc(C)c(C)c2nc1O)C(=O)NC1CCCCC1
AC50 (Cytochrome P450 2C19; read-out: AC50): 39.8 µM (inconclusive) | AC50 [12]: > 20 µM (inactive)

CCN1C(=O)[C@H]2[C@H]3[C@H](O)[C@H](O)C/C(=N/OC[C@@H](C)[C@H](OCc4ccccc4)C(C)C)[C@@H]3CC[C@@H]2C1=O
AC50 (Cytochrome P450 2D6): inconclusive | AC50 (Cytochrome P450 3A4 [13]): 3.98 µM (inconclusive)

CC(C)(C)NC(=O)C(c1ccccc1)N(Cc1cccs1)C(=O)c1csnn1 (stereo not drawn)
AC50 [14]: 38.5 µM (active) | AC50 [15]: 8.36 µM (active) | AC50 [16]: 5.72 µM (active) | AC50 [17]: 6.9 µM (active)

N#Cc1cccc(NC(=O)N2CCC3(CC2)CCN(C(=O)c2ccco2)CC3)c1
AC50 (Cytochrome P450 2C19; read-out: AC50): 20 µM (inconclusive) | AC50 (Cytochrome P450 3A4 [1]): inconclusive

COC(=O)N1CCC2(CC1)CCN(C(c1ccccc1)c1ccccc1)CC2
AC50 (Cytochrome P450 2C9 [6]): 39.8 µM (inconclusive) | AC50 (Cytochrome P450 3A4 [1]): inconclusive

O=C(NCc1ccccc1)c1nc(-c2cccs2)no1
IC50 (Prothrombin): > 50 µM (not active)

CC(C)COc1ccc(C(=O)Nc2scc(-c3ccc(Cl)cc3Cl)c2C(N)=O)cc1
EC50 [18]: 1.76 µM (active) | EC50 [19]: > 60 µM (not active) | AC50 (Cytochrome P450 3A4 [1]): inconclusive

O=C(CSc1nnc(Cn2nnc(-c3ccccc3)n2)n1-c1ccccc1)Nc1ccc(F)cc1
IC50 (Prothrombin): > 50 µM (not active)

CNC(=S)NNC(=O)COc1ccccc1C
AC50 (Cytochrome P450 2D6): inconclusive

O=C(O)[C@H]1CCN1
AC50 (Cytochrome P450 3A4 [1]): inconclusive | AC50 (Cytochrome P450 2C9 [2]): inconclusive

CCC(=O)N1CCc2cc(S(=O)(=O)N3CCN(c4ccc([N+](=O)[O-])cc4)CC3)ccc21
IC50 (HEK293): > 20 µM (inactive) | IC50 (Tumor necrosis factor): > 20 µM (inactive)

O=C(C[C@H]1CC[C@@H](NC(=O)Nc2ccccc2F)[C@@H](CO)O1)NCc1ccc(Cl)cc1
AC50 [15]: 18.8 µM (active) | AC50 [16]: 5.31 µM (active) | AC50 [17]: 5.2 µM (active)

NS(=O)(=O)c1ccc(CCNC(=O)Cc2cccs2)cc1
IC50 [20]: > 100 µM (not active)
